Data on 29 compounds can be found in patent US7468359B2, “Compositions comprising oxophosphonate-based metalloproteinase inhibitors” (Yissum Research Develpment Company of the Hebrew University …, priority 1999, dated 2008).

What is called inhibition is the change of the read-out against control, counted positive when it falls. For orientation: IC50 means the concentration at which inhibition is half-maximal.

Each structure is given as a SMILES string.

The first assay relates to cancer cells. Briefly: Matrigel chemoinvasion assay in Boyden chambers. It is filed as cell-based.
Settings: not given
With `CCOC([O-])[PH](=O)C(=O)N(C)O.[Na+]` (stereo not shown) [Compound 1], the Activity result was “++ (key: ++++: active at submicromolar concen-tration; +++: active at 1-10 μM; ++: active at 50-100 μM; +: active at 100 μM; −: not active at 100 μM)”.

Regarding `COP(=O)([O-])C(=O)Cc1ccccc1.[Na+]` [Compound 13], the Activity entry is “++ (key: ++++: active at submicromolar concen-tration; +++: active at 1-10 μM; ++: active at 50-100 μM; +: active at 100 μM; −: not active at 100 μM)”. Still for that read-out and setting: as for `CCCCNC(=O)P(=O)([O-])O.[Na+]` [Compound 23], the entry is “+ (key: ++++: active at submicromolar concen-tration; +++: active at 1-10 μM; ++: active at 50-100 μM; +: active at 100 μM; −: not active at 100 μM)”. As for `O=C(NC1CCCCC1)P(=O)(O)O` [Example 5, Hydrogen Sodium N-cyclohexylcarbamoylphosphonate], the “concentration at which active in the Boyden chamber chemoinvasion assay” value (from here on “concentration at which active”) worked out at 1 µM. Regarding `CCC(=O)P(=O)([O-])O.[Na+]` [Compound 10], the Activity result is listed as “+ (key: ++++: active at submicromolar concen-tration; +++: active at 1-10 μM; ++: active at 50-100 μM; +: active at 100 μM; −: not active at 100 μM)”. As for `O=C(NCCN1CCOCC1)P(=O)(O)O` [Example 7, N-(2-[4-morpholino]ethyl)phosphonoformamide Betaine], the “concentration at which active” value was found to be 100 µM.

As for `O=P([O-])([O-])Cc1ccc(Cl)cc1.[Na+].[Na+]` [Compound 38, p-chlorobenzylphosphonic acid sodium salt, reference compound], the Activity entry is “− (key: ++++: active at submicromolar concen-tration; +++: active at 1-10 μM; ++: active at 50-100 μM; +: active at 100 μM; −: not active at 100 μM)” and the MMP inhibiting activity result was “completely devoid of inhibitory activity”.

For the compound `O=C(OCc1ccccc1)P(=O)([O-])O.[Na+]` [Compound 5], the Activity result is listed as “++ (key: ++++: active at submicromolar concen-tration; +++: active at 1-10 μM; ++: active at 50-100 μM; +: active at 100 μM; −: not active at 100 μM)”. On the same count and under the same terms, for `CCC(=O)P(=O)([O-])OC.[Na+]` [Compound 11] the value was “+ (key: ++++: active at submicromolar concen-tration; +++: active at 1-10 μM; ++: active at 50-100 μM; +: active at 100 μM; −: not active at 100 μM)”. As for `CNC(=O)[C@H](Cc1ccccc1)NC(=O)[C@H](CC(C)C)NC(=O)P(=O)(O)O` [Example 19, Phosphonoformyl-Leu-Phe-NHMe], the “% Inhibition of Chemoinvasion 50 uM” value stood at 55%. Take `O=C(NCCN1CCCCC1)P(=O)(O)O` [Example 8, N-(2-[1-piperidino]ethyl)phosphonoformamide Betaine]: the “concentration at which active” value was determined as 100 µM. With `O=C(c1ccc(Cl)cc1)P(=O)([O-])[O-].[Na+].[Na+]` [Compound 8, p-chlorobenzoylphosphonic acid sodium salt], the Activity result is recorded as “+++ (key: ++++: active at submicromolar concen-tration; +++: active at 1-10 μM; ++: active at 50-100 μM; +: active at 100 μM; −: not active at 100 μM)” and the MMP inhibiting activity result is “considerable MMP inhibiting activity”. As for `O=C(NCCc1c[nH]cn1)P(=O)(O)O` [Example 15, Phosphonoformylhistamine], the “% Inhibition of Chemoinvasion 50 uM” value is recorded as 15%.

Turning to `O=C(NC1CCCCC1)P(=O)(O)O` [Compound 33], the Activity result is “++++ (key: ++++: active at submicromolar concen-tration; +++: active at 1-10 μM; ++: active at 50-100 μM; +: active at 100 μM; −: not active at 100 μM)”. Regarding `O=C(NCCN1CCCC1)P(=O)(O)O` [Example 9, N-(2-[1-pyrrolidino]ethyl)phosphonoformamide Betaine], the “concentration at which active” value came out at 100 µM.

For `O=C(NCc1ccccc1)P(=O)([O-])O.[Na+]` [Compound 16], the Activity result is on record as “++ (key: ++++: active at submicromolar concen-tration; +++: active at 1-10 μM; ++: active at 50-100 μM; +: active at 100 μM; −: not active at 100 μM)”. On the same count and under the same terms, as for `O=C(c1ccccc1)P(=O)([O-])O.[Na+]` [Compound 7], the entry is “++ (key: ++++: active at submicromolar concen-tration; +++: active at 1-10 μM; ++: active at 50-100 μM; +: active at 100 μM; −: not active at 100 μM)”; as for `CN(C)CCNC(=O)P(=O)(O)O` [Compound 26, N-(2-dimethylaminoethyl)phosphonoformamide Betaine], “++++ (key: ++++: active at submicromolar concen-tration; +++: active at 1-10 μM; ++: active at 50-100 μM; +: active at 100 μM; −: not active at 100 μM)”. On to `CCC(=NO)P(=O)([O-])OC.[Li+]` [Compound 14], for which the Activity result is listed as “+ (key: ++++: active at submicromolar concen-tration; +++: active at 1-10 μM; ++: active at 50-100 μM; +: active at 100 μM; −: not active at 100 μM)”.

`CC(=O)NCCNC(=O)P(=O)(O)O` [Example 10, N-(2-acetamidoethyl)phosphonoformamide]: the “concentration at which active” value came to 100 µM. Regarding `O=C(Cc1ccccc1)P(=O)([O-])O.[Na+]` [Compound 12], the Activity entry is reported as “+ (key: ++++: active at submicromolar concen-tration; +++: active at 1-10 μM; ++: active at 50-100 μM; +: active at 100 μM; −: not active at 100 μM)”.

Staying with this assay, now noted: 50 uM.
As for `CNC(=O)[C@H](Cc1ccc(OC)cc1)NC(=O)[C@H](CC(C)C)NC(=O)P(=O)(O)O` [Example 20, Phosphonoformyl-Leu-Tyr(Me)-NHMe], the “% Inhibition of Chemoinvasion 50 uM” value is 39%. Still for that read-out and setting: as for `CNC(=O)[C@@H](NC(=O)[C@H](CC(C)C)NC(=O)P(=O)(O)O)C(C)C` [Example 18, Phosphonoformyl-Leu-Val-NHMe], the figure is 38%; as for `CNC(=O)C(NC(=O)C(Cc1ccccc1)NC(=O)P(=O)(O)O)C(C)C` (stereo not drawn) [Example 21, Phosphonoformyl-Phe-Val-CONHMe], 41%. On the same count and under the same terms, as for `O=C(NC1CCCC1)P(=O)(O)O` [Example 16, N-cyclopentylcarbamoylphosphonic Acid], the figure is 65%; as for `O=C(NCCSCc1ccccc1)P(=O)(O)O` [Example 17, N-(S-benzylmercaptoethyl)carbamoylphosphonic Acid], 61%.

Still in this assay, the particulars now being: preliminary screening, invasion/chemotaxis chambers vs untreated preparations.
For the compound `O=C(NCCc1ccccc1)P(=O)([O-])O.[Na+]` [Compound 17], the Activity entry was “+ (active at 100 μM)”.

The same assay, now with this note: read-out: % Inhibition of Chemoinvasion 50 uM.
Regarding `CNC(=O)[C@H](Cc1ccccc1)NC(=O)[C@H](CC(C)C)[C@H](CSc1cccs1)C(=O)NO` [Batimastat, reference compound], the inhibition at 50 µM is 40%. In the case of `CN(C)CCNC(=O)P(=O)(O)O` [Compound 26, N-(2-dimethylaminoethyl)phosphonoformamide Betaine], the inhibition at 50 µM stood at 66%.

A further assay addresses T1, MMP2 (Homo sapiens, UniProt P08253).
T1 sequence (P08253 110-660): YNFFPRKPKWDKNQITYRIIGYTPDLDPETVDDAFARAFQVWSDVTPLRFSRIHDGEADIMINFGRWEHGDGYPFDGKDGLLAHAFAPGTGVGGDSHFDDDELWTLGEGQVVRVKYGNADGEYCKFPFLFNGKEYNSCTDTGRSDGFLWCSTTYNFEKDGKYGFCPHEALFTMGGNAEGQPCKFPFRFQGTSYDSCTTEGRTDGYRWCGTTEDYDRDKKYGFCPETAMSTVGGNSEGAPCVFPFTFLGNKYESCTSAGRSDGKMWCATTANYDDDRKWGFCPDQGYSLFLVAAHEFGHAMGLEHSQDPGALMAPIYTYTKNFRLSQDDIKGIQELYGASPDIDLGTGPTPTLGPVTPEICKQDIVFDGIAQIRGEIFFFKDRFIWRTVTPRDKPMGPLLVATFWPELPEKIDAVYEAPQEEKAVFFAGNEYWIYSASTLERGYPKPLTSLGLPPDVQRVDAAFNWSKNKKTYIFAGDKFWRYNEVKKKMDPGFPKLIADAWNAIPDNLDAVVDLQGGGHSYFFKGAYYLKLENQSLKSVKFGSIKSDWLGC
Briefly: Activity on pure MMP2 enzyme. It is filed as biochemical.
Settings: not given
`O=C(NC1CCCCC1)P(=O)(O)O` [Example 5, Hydrogen Sodium N-cyclohexylcarbamoylphosphonate] returned an IC50 of 80 nM. The same measure, in the same setting: for `CN(C)CCNC(=O)P(=O)(O)O` [Compound 26, N-(2-dimethylaminoethyl)phosphonoformamide Betaine] the value was 25 nM.

For a further assay, the system named is Endothelial cells. The assay is described as follows: Endothelial cell tube formation (capillary formation). In kind it is cell-based. Conditions: 50 µM.
`CNC(=O)[C@H](Cc1ccc(OC)cc1)NC(=O)[C@H](CC(C)C)NC(=O)P(=O)(O)O` [Example 20, Phosphonoformyl-Leu-Tyr(Me)-NHMe]: the “% Inhibition of Capillary Formation 50 UM” value was determined as 38%. As to `CNC(=O)[C@@H](NC(=O)[C@H](CC(C)C)NC(=O)P(=O)(O)O)C(C)C` [Example 18, Phosphonoformyl-Leu-Val-NHMe], the “% Inhibition of Capillary Formation 50 UM” value came to 42%. Regarding `CNC(=O)[C@H](Cc1ccccc1)NC(=O)[C@H](CC(C)C)NC(=O)P(=O)(O)O` [Example 19, Phosphonoformyl-Leu-Phe-NHMe], the “% Inhibition of Capillary Formation 50 UM” value was determined as 60%. Still for that read-out and setting: as for `O=C(NC1CCCC1)P(=O)(O)O` [Example 16, N-cyclopentylcarbamoylphosphonic Acid], the figure is 70%; as for `O=C(NCCSCc1ccccc1)P(=O)(O)O` [Example 17, N-(S-benzylmercaptoethyl)carbamoylphosphonic Acid], 58%.

Still in this assay, the particulars now being: Endothelial cell, read-out: % Inhibition of Capillary Formation 50 µM.
`CN(C)CCNC(=O)P(=O)(O)O` [Compound 26, N-(2-dimethylaminoethyl)phosphonoformamide Betaine]: the inhibition at 50 µM was 75%.

A further assay relates to murine melanoma. Briefly: Metastasis formation in the murine melanoma model. In kind it is in vivo, mice. Conditions: 50 mg/kg daily injections for 21 d, lung tumors counted, vs untreated animals.
As for `CNC(=O)[C@H](Cc1ccc(OC)cc1)NC(=O)[C@H](CC(C)C)NC(=O)P(=O)(O)O` [Example 20, Phosphonoformyl-Leu-Tyr(Me)-NHMe], the “% Inhibition of Metastasis Formation 50 mg/kg for 21 d” value (“% Inhibition … for 21 d” below) is reported as 75%. Still for that read-out and setting: as for `CNC(=O)[C@H](Cc1ccc(OC)cc1)NC(=O)[C@@H](CC(=O)NO)CC(C)C` [SC-44463, reference compound], the figure is 70-75%. As to `O=C(NC1CCCC1)P(=O)(O)O` [Example 16, N-cyclopentylcarbamoylphosphonic Acid], the “% Inhibition … for 21 d” value is recorded as 70%. As to `CN(C)CCNC(=O)P(=O)(O)O` [Compound 26, N-(2-dimethylaminoethyl)phosphonoformamide Betaine], the “% Inhibition … for 21 d” value stood at 73%.
